Experimental data: PMC10254843, “Discovery of New 2-Phenylamino-3-acyl-1,4-naphthoquinones as Inhibitors of Cancer Cells Proliferation: Searching for Intra-Cellular Targets Playing a Role in Cancer Cells Survival” (Molecules, 2023)

Legend:
[1] = tested on: T24 (Urinary bladder cancer cells); experiment: MTT cell survival assay, T24 urinary bladder cancer cells; format: cell-based; conditions: Homo sapiens; MTT test; cells incubated at 37 °C for 48 h (Table 1 footnote); mean ± SEM, n = 3
Experimental: (§1) Human cancer cell lines from bladder (T24), prostate (DU–145), breast (MCF–7) and non-tumor HEK-293 cells were obtained from the American Type Culture Collection (ATCC, Manassas, VA, USA). The cultures were maintained at a density of 1–2 × 10^5 cells/mL and the medium was changed at 48- and 72-h intervals. They were cultured in high-glucose Dulbecco’s modified Eagle medium (Gibco, Grand Island, NY, USA) supplemented with 10% fetal calf serum, penicillin (100 U/mL) and streptomycin (100 μg/mL). All cultures were kept at 37 °C in 95% air/5% CO2 at 100% humidity. Phosphate-buffered saline (PBS) was purchased from Gibco. Cells were incubated at the indicated times at 37 °C with or without compounds 1–14 at various concentrations.
(§2) The cytotoxicity of the compounds 1–14 was assessed by following the reduction of MTT (3-(4,5-Dimethylthiazol-2-yl)-2,5-diphenyltetrazolium bromide) to formazan blue. […] Doxorubicin was used as a standard chemotherapeutic agent (positive control). Cells were washed twice with warm PBS and further incubated with MTT (0.5 mg/mL) for 2 h at 37 °C. Blue formazan crystals were solubilized by adding 100 µL DMSO/well, and the optical density of colored solutions was subsequently read at 550 nm in a microplate reader Tecan infinite M200 Pro (Männedorf, Switzerland). The compounds 1–14 were dissolved in DMSO (stock solution at 100 mM) and further diluted to be evaluated at the following concentrations: 0 μM, 1 μM, 10 μM, 20 μM, 40 μM, 60 μM, 80 μM and 100 μM. Results are expressed as % of MTT reduction compared to untreated control conditions. The IC50 values were calculated using the GraphPad Prism 8.0.2 software (San Diego, CA, USA).

[2] = tested on: non-tumorigenic HEK-293 (embryonic kidney cells); experiment: MTT cell survival assay, non-tumorigenic HEK-293 cells; format: cell-based; conditions: Homo sapiens, HEK293; MTT test; cells incubated at 37 °C for 48 h (Table 1 footnote); mean ± SEM, n = 3
Experimental: as §1, §2

[3] = tested on: MCF-7 (mammary cancer cells); experiment: MTT cell survival assay, MCF-7 mammary cancer cells; format: cell-based; conditions: Homo sapiens, MCF7; MTT test; cells incubated at 37 °C for 48 h (Table 1 footnote); mean ± SEM, n = 3
Experimental: as §1, §2

[4] = tested on: DU-145 (prostate cancer cells); experiment: MTT cell survival assay, DU-145 prostate cancer cells; format: cell-based; conditions: Homo sapiens, MTT test, cells incubated at 37 °C for 48 h (Table 1 footnote), mean ± SEM, n = 3
Experimental: as §1, §2

[5] = tested on: HEK-293 cells/tumour cells; experiment: Mean selective index, HEK-293 vs tumour cells; format: cell-based, human; conditions: MSI = IC50 values HEK-293 cells/IC50 values tumour cells
Experimental: (§3) The cytotoxicity of the compounds 1–14 was assessed by following the reduction of MTT (3-(4,5-Dimethylthiazol-2-yl)-2,5-diphenyltetrazolium bromide) to formazan blue. Cells were seeded into 96-well plates at a density of 10,000 cells/well for 24 h and then they were further incubated for 24 h with or without the quinones. Doxorubicin was used as a standard chemotherapeutic agent (positive control). Cells were washed twice with warm PBS and further incubated with MTT (0.5 mg/mL) for 2 h at 37 °C. Blue formazan crystals were solubilized by adding 100 µL DMSO/well, and the optical density of colored solutions was subsequently read at 550 nm in a microplate reader Tecan infinite M200 Pro (Männedorf, Switzerland). The compounds 1–14 were dissolved in DMSO (stock solution at 100 mM) and further diluted to be evaluated at the following concentrations: 0 μM, 1 μM, 10 μM, 20 μM, 40 μM, 60 μM, 80 μM and 100 μM. Results are expressed as % of MTT reduction compared to untreated control conditions. The IC50 values were calculated using the GraphPad Prism 8.0.2 software (San Diego, CA, USA).

[6] = Half-wave potentials by cyclic voltammetry; format: physicochemical; conditions: for −E^I½ (mV): acetonitrile, platinum electrode, room temperature, negative of the potential; for half-wave potential: signed value
Experimental: Calculation of lipophilicity (ClogP) and molar refractivity (CMR) was assessed by using the ChemBioDraw Ultra 11.0 software and the obtained values are shown in Table 3. Redox potentials of 2-phenylamino-3-acyl-1,4-naphtoquinones 1–14 were measured by cyclic voltammetry at room temperature in acetonitrile as solvent using a platinum electrode and 0.1M tetraethylammonium tetrafluoroborate as the supporting electrolyte.

[7] = tested on: DU-145, MCF-7 and T24 cancer cells; experiment: Antiproliferative activity over DU-145, MCF-7 and T24 cancer cells; format: cell-based, human; conditions: summary of Table 1 (DU-145, MCF-7, T24)
Experimental: as §1, §3

CCN2 = experiment: RT-qPCR mRNA level of CCN2 in DU-145 cells; format: cell-based, human; conditions: DU145 cells, 24 h; compound 4 at 1 µM, compound 11 at 6 µM; normalized to B2M, 2^−∆∆Ct vs vehicle (1.00); mean ± SEM
Experimental: (§4) The […] cells were cultured as previously mentioned. […] Afterwards, they were washed with phosphate-buffered saline. The cellular lysate was prepared with E.Z.N.A.®RNA-Lock Reagent (Omega Bio-tek, Norcross, GA, USA) to preserve and immediately stabilize the total RNA for the subsequent gene expression assays. The total RNA isolated from the cells using the E.Z.N.A.®HP Total RNA Isolation Kit (Omega Bio-tek) was reverse-transcribed to cDNA using the AffinityScript QPCR cDNA Synthesis Kit (Agilent Technologies, Santa Clara, CA, USA) and 1000 ng of the RNA sample.
(§5) The cDNA synthesized was employed for qPCR using Brilliant III Ultra-Fast SYBR®Green QPCR Master Mix (Agilent Technologies) in an Mx3000P qPCR System (Agilent Technologies), employing a 96-well plate with 20 μL of PCR reaction per well and 10 pmol each of forward and reverse gene-specific primers. Nine genes were analyzed: B2M, Bcl2, CDC25A, CCN2, GSR, HDAC4, mTOR, TNF, TP53 and their quantitative real-time (qPCR) primer sequences are reported in Table S1 (supplementary material). The relative gene expressions were determined using Beta-2-microglobulin (B2M) as housekeeping, and the delta-delta Ct method (2^−∆∆Ct method) with regard to the vehicle-treated group (i.e., the reference group). Five biological replicates were used from each group (treated and reference group). […]

HDAC4 = experiment: RT-qPCR mRNA level of HDAC4 in DU-145 cells; format: cell-based, human; conditions: DU145 cells, 24 h; compound 4 at 1 µM, compound 11 at 6 µM; normalized to B2M, 2^−∆∆Ct vs vehicle (1.00); mean ± SEM
Experimental: as §4, §5

TNF = experiment: RT-qPCR mRNA level of TNF in DU-145 cells; format: cell-based, human; conditions: DU145 cells, 24 h; compound 4 at 1 µM, compound 11 at 6 µM; normalized to B2M, 2^−∆∆Ct vs vehicle (1.00); mean ± SEM
TP53 = experiment: RT-qPCR mRNA level of TP53 in DU-145 cells; format: cell-based, human; conditions: DU145 cells, 24 h; compound 4 at 1 µM, compound 11 at 6 µM; normalized to B2M, 2^−∆∆Ct vs vehicle (1.00); mean ± SEM
Experimental: as §4, §5

GSR = experiment: RT-qPCR mRNA level of GSR in DU-145 cells; format: cell-based, human; conditions: DU145 cells, 24 h; compound 4 at 1 µM, compound 11 at 6 µM; normalized to B2M, 2^−∆∆Ct vs vehicle (1.00); mean ± SEM
Experimental: as §4, §5

CDC25A = experiment: RT-qPCR mRNA level of CDC25A in DU-145 cells; format: cell-based, human; conditions: DU145 cells, 24 h; compound 4 at 1 µM, compound 11 at 6 µM; normalized to B2M, 2^−∆∆Ct vs vehicle (1.00); mean ± SEM
Experimental: as §4, §5

| Structure (SMILES) | IC50 [1] [µM] | IC50 [2] [µM] | IC50 [3] [µM] | IC50 [4] [µM] | MSI (mean selective index) [5] | −E^I½ (mV) [6] [mV] | half-wave potential [6] [mV] | IC50 range over the cancer cell lines [7] | Relative expression level (mRNA level) CCN2 (CCN2) | Relative expression level (mRNA level) HDAC4 (HDAC4) | Relative expression level (mRNA level) TNF (TNF) | Relative expression level (mRNA level) TP53 (TP53) | Relative expression level (mRNA level) GSR (GSR) | Relative expression level (mRNA level) CDC25A (CDC25A) |
| --- | --- | --- | --- | --- | --- | --- | --- | --- | --- | --- | --- | --- | --- | --- |
| COc1ccc(C(=O)C2=C(Nc3ccccc3)C(=O)c3ccccc3C2=O)cc1OC [Compound 7, 2-(Phenylamino)-3-(3,4-dimethoxybenzoyl)naphthalene-1,4-dione] | 15.2 ± 0.88 | 79.9 ± 10.4 | 10.6 ± 0.27 | 11.9 ± 0.22 | 6.4 | 604 |  |  |  |  |  |  |  |  |
| O=C(C1=C(Nc2ccccc2)C(=O)c2ccccc2C1=O)c1ccc[nH]1 [Compound 14, 2-(Phenylamino)-3-(1H-pyrrole-2-carbonyl)naphthalene-1,4-dione] | 21.7 ± 0.22 | 13.7 ± 1.36 | 10.7 ± 0.35 | 14.5 ± 0.25 | 0.9 | 685 | −685 |  |  |  |  |  |  |  |
| CCCCCCCCCCCC(=O)C1=C(Nc2ccccc2)C(=O)c2ccccc2C1=O [Compound 3, 2-(Phenylamino)-3-dodecanoylnaphthalene-1,4-dione] | > 100 | > 100 | > 100 | > 100 | 1.0 | 484 |  | almost devoid of activity |  |  |  |  |  |  |
| COc1cccc(C(=O)C2=C(Nc3ccccc3)C(=O)c3ccccc3C2=O)c1 [Compound 5, 2-(Phenylamino)-3-(3-methoxybenzoyl)naphthalene-1,4-dione] | 12 ± 0.37 | 30.8 ± 4.07 | 6.63 ± 0.13 | 10.2 ± 0.95 | 3.2 | 500 |  |  |  |  |  |  |  |  |
| O=C(C1=C(Nc2ccccc2)C(=O)c2ccccc2C1=O)c1ccco1 [Compound 11] | 11.7 ± 0.84 | > 100 | 4.64 ± 0.23 | 5.45 ± 0.21 | 13.7 | 578 | −578 |  | 0.95 ± 0.09 | 0.81 ± 0.07 | 0.93 ± 0.08 | 0.87 ± 0.05 | 0.94 ± 0.06 | 0.90 ± 0.05 |
| O=C(C1=C(Nc2ccccc2)C(=O)c2ccccc2C1=O)c1ccsc1 [Compound 13, 2-(Phenylamino)-3-(thiophene-3-carbonyl)naphthalene-1,4-dione] | 13.8 ± 0.58 | 20.4 ± 2.77 | 6.37 ± 0.23 | 8.91 ± 0.82 | 2.1 | 635 | −635 |  |  |  |  |  |  |  |
| COc1cc(C(=O)C2=C(Nc3ccccc3)C(=O)c3ccccc3C2=O)cc(OC)c1OC [Compound 8, 2-(Phenylamino)-3-(3,4,5-trimethoxybenzoyl)naphthalene-1,4-dione] | 7.14 ± 0.2 | 37.4 ± 1.7 | 4.88 ± 0.52 | 11.7 ± 0.29 | 4.7 | 690 |  |  |  |  |  |  |  |  |
